Measured values published in patent publication US5780472A, “Piperazine derivatives and methods for the preparation thereof and compositions containing the same” (Samjin Pharmaceuticazl Co., Ltd., priority 1995, dated 1998).
Values after ≈ are worked out from the molar mass of the structure shown.

Assays:
[1] = system: 5 kinds of human solid cancer cell lines; test: In vitro antitumor activity against 5 human solid cancer cell lines compared with cisplatin (SRB assay); type: cell-based; details: in words
Description: Antitumor activities of the compounds of present invention were tested. Antitumor activities of compounds of the present invention were tested in vitro against 5 kinds of human tumor cell lines and 2 kinds of leukemia tumor cell lines. The method of in vitro test is as follows.
B. Method of test(SRB Assay Method)
a. Human solid tumor cell lines, […](non-small lung cell), SKMEL-2(melanoma), HCT-15(colon), SKOV-3(ovarian), XF-498(CNS) were cultured at 37° C., in 5% CO2 incubater using the RPMI 1640 media containing 10% FBS, while they were transfer-cultured successively once or twice per week. Cell cultures were dissolved into the solution of 0.25% trypsin and 3 mM CDTA PBS(-) and then cells were separated from media which the cells were sticked on.
b. 5×10^3 -2×10^4 cells were added into each well of 96-well plate and cultured in 5% CO2 incubater, at 37° C., for 24 hours.
c. Each sample drugs was dissolved in a small quantity of DMSO, and diluted to concentrations prescribed in experiment with media, and then the final concentration of DMSO was controlled below 0.5%.
d. A medium of each well cultured for 24 hours as above b., was removed by aspiration. 200 μl of drug samples prepared in c. was added into each well and the wells were cultured for 48 hours. Tz(time zero) plates were collected at the point of time drugs were added.
e. After Tz plates and plates were treated with cell fixing by TCA of SRB assay method, staining of 0.4% SRB solution, washing with 1% acetic acid, OD values were measured at 520 nm, following elution of dye with 10 mM Tris solution.
e. If T≥Tz, cellular response function was calculated with 100×(T-Tz)/(C-Tz), and if T<Tz, with 100×(T-Tz)/Tz.

[2] = system: L1210 (mouse leukemia cell); test: In vitro antitumor effects against animal leukemia cells (dye exclusion assay), L1210; type: cell-based; details: Mus musculus, L1210, 48 h, 50% cell growth inhibition, 37° C., trypan blue, read-out: ED50 (the source's name)
Description: L1210(mouse leukemia cell)
(§1) B. Method of Experiment(Dye Exclusion Assay)
(§2) 2) Sample drugs diluted with log dose were added into the cells, and it were cultured at 37° C., for 48 hours, in […] incubater, and then viable cell number was measured, Viable cell number was measured with dye exclusion test using trypan blue.

[3] = system: P388 (mouse lymphoid neoplasma cell); test: In vitro antitumor effects against animal leukemia cells (dye exclusion assay), P388; type: cell-based; details: Mus musculus, P388, 48 h, 50% cell growth inhibition, 37° C., trypan blue, read-out: ED50 (the source's name)
Description: P388 (mouse lymphoid neoplasma cell)
as §1, §2

[4] = system: L1210 and P388 mouse cancer cells; test: In vitro antitumor activity against L1210 and P388 compared with mitomycin C (dye exclusion assay); type: cell-based; details: in words
Description: as §1
1) L-1210 and P388 cells that were cultured in RPMI 1640 media containing 10% FBS were regulated as the cell concentration of 1×10^6 cells/ml.
as §2
3) The concentration of sample compounds of 50% cell growth inhibition compared with standard group was determined as IC50.

ICR mice = test: Acute toxicity test (LD50), Litchfield-Wilcoxon method; type: in vivo, mouse; design: unit not given here; details: male ICR mice, 14 days

SMILES	antitumor activities compared with cisplatin [1]	IC50 [2] [µg/mL]	IC50 [3] [µg/mL]	antitumor activities compared with mitomycin C [4]	LD50 (ICR mice; i.p.)	LD50 (ICR mice; p.o.)
CCc1cc(NC(=O)N2CCN(c3cc(F)cc(F)c3)CC2)c(OC)nc1C [Example 13, 1-[(5-ethyl-2-methoxy-6-methylpyridine-3-yl)aminocarbonyl]-4-(3,5-difluorophenyl)piperazine]	superior antitumor activities to those of cisplatin	1.7 (≈ 4.35 µM)	1.6 (≈ 4.1 µM)	same or more excellent antitumor activities		
CCc1cc(NC(=O)N2CCN(c3cccc(C)c3C)CC2)c(OC)nc1C [Example 28, 1-[(5-ethyl-2-methoxy-6-methylpyridin-3-yl)aminocarbonyl]-4-(2,3-dimethylphenyl)piperazine]	superior antitumor activities to those of cisplatin				> 1,800	> 2,000
CCc1cc(NC(=O)N2CCN(c3cccc(O)c3)CC2)c(OC)nc1C [Example 38, 1-[(5-ethyl-2-methoxy-6-methylpyridin-3-yl)aminocarbonyl]-4-(3-hydroxyphenyl)piperazine]	superior antitumor activities to those of cisplatin	1.4 (≈ 3.78 µM)	1 (≈ 2.7 µM)	same or more excellent antitumor activities		
CCc1cc(NC(=O)N2CCN(c3cccc(OC(C)=O)c3)CC2)c(OC)nc1C [Example 41, 1-[(5-ethyl-2-methoxy-6-methylpyridin-3-yl)aminocarbonyl]-4-(3-acetoxyphenyl)piperazine]	superior antitumor activities to those of cisplatin	1.4 (≈ 3.39 µM)	2 (≈ 4.85 µM)	same or more excellent antitumor activities		
CCc1cc(NC(=O)N2CCN(c3cc(C)ccc3OC)CC2)c(OC)nc1C [Example 47, 1-[(5-ethyl-2-methoxy-6-methylpyridin-3-yl)aminocarbonyl]-4-(2-methoxy-5-methylphenyl)piperazine]	superior antitumor activities to those of cisplatin	0.3 (≈ 0.753 µM)	0.3 (≈ 0.753 µM)	same or more excellent antitumor activities		
CCc1cc(NC(=O)N2CCN(c3cc(OC)ccc3C)CC2)c(OC)nc1C [Example 48, 1-[(5-ethyl-2-methoxy-6-methylpyridin-3-yl)aminocarbonyl]-4-(5-methoxy-2-methylphenyl)piperazine]	superior antitumor activities to those of cisplatin	1.9 (≈ 4.77 µM)	1.8 (≈ 4.52 µM)	same or more excellent antitumor activities		
CCc1cc(NC(=O)N2CCN(c3cc(Cl)ccc3OC)CC2)c(OC)nc1C [Example 49, 1-[(5-ethyl-2-methoxy-6-methylpyridin-3-yl)aminocarbonyl]-4-(5-chloro-2-methioxyphenyl)piperazine]	superior antitumor activities to those of cisplatin	1.3 (≈ 3.1 µM)	0.6 (≈ 1.43 µM)	same or more excellent antitumor activities		
CCc1cc(NC(=O)N2CCN(c3cc(OC)ccc3Cl)CC2)c(OC)nc1C [Example 50, 1-[(5-ethyl-2-methoxy-6-methylpyridin-3-yl)aminocarbonyl]-4-(2-chloro-5-methoxyphenyl)piperazine]	superior antitumor activities to those of cisplatin	2 (≈ 4.77 µM)	1.5 (≈ 3.58 µM)			
CCc1cc(NC(=O)N2CCN(c3cccc(O)c3C)CC2)c(OC)nc1C [Example 55, 1-[(5-ethyl-2-methoxy-6-methylpyridin-3-yl)aminocarbonyl]-4-(3-hydroxy-2-methylphenyl)piperazine]	superior antitumor activities to those of cisplatin					
CCc1cc(CNC(=O)N2CCN(c3ccccc3F)CC2)c(OC)nc1C [Example 61]	superior antitumor activities to those of cisplatin				> 1,687	
CCc1cc(NC(=O)N2CCN(c3cccc(Cl)c3)CC2)c(NC)nc1C [Example 91]	superior antitumor activities to those of cisplatin					
CCc1cc(NC(=S)N2CCN(c3ccccc3OC)CC2)c(OC)nc1C [Example 97, 1-[(5-ethyl-2-methoxy-6-methylpyridin-3-yl)aminothiocarbonyl]-4-(2-methoxyphenyl)piperazine]	superior antitumor activities to those of cisplatin	2 (≈ 4.99 µM)	1.6 (≈ 3.99 µM)		1,100	
CCc1cc(NC(=S)N2CCN(c3cccc(Cl)c3)CC2)c(OC)nc1C [Example 98, 1-[(5-ethyl-2-methoxy-6-methylpyridin-3-yl)aminothiocarbonyl]-4-(3-chlorophenyl)piperazine]	superior antitumor activities to those of cisplatin	2 (≈ 4.94 µM)	2.1 (≈ 5.19 µM)		> 1,800	> 2,000
CCc1cc(NC(=S)N2CCN(c3cc(OC)cc(OC)c3)CC2)c(OC)nc1C [Example 100, 1-[(5-ethyl-2-methoxy-6-methylpyridin-3-yl)aminothiocarbonyl]-4-(3,5-dimethoxyphenyl)piperazine]	superior antitumor activities to those of cisplatin					
COc1nc(C)c(C)cc1NC(=O)N1CCN(c2cccc(Cl)c2)CC1 [Example 109, 1-[(5,6-dimethyl-2-methoxypyridin-3-yl)aminocarbonyl]-4-(3-chlorophenyl)piperazine]	superior antitumor activities to those of cisplatin				2,000	> 2,073
COc1nc(C)c(C)cc1NC(=O)N1CCN(c2cc(F)cc(F)c2)CC1 [Example 111, 1-[(5,6-dimethyl-2-methoxypyridin-3-yl)aminocarbonyl]-4-(3,5-difluorophenyl)piperazine]	superior antitumor activities to those of cisplatin					
COc1nc(C)c(C)cc1NC(=O)N1CCN(c2cccc(O)c2)CC1 [Example 113]	superior antitumor activities to those of cisplatin					
COc1nc(C)c(C)cc1NC(=O)N1CCN(c2cccc(OC(C)=O)c2)CC1 [Example 115, 1-[(5,6-dimethyl-2-methoxypyridin-3-yl)aminocarbonyl]-4-(3-acetoxyphenyl)piperazine]	superior antitumor activities to those of cisplatin					
COc1nc(C)c(C)cc1NC(=O)N1CCN(c2cccc(C)c2C)CC1 [Example 119, 1-[(5,6-dimethyl-2-methoxypyridin-3-yl)aminocarbonyl]-4-(2,3-xylyl)piperazine]	superior antitumor activities to those of cisplatin	2.2 (≈ 5.97 µM)	2 (≈ 5.43 µM)			
COc1nc(C)c(C)cc1NC(=O)N1CCN(c2cc(C)cc(C)c2)CC1 [Example 120, 1-[(5,6-dimethyl-2-methoxypyridin-3-yl)aminocarbonyl]-4-(3,5-xylyl)piperazine]	superior antitumor activities to those of cisplatin	0.3 (≈ 0.814 µM)	0.1 (≈ 0.271 µM)	same or more excellent antitumor activities		
COc1ccc(C)c(N2CCN(C(=O)Nc3cc(C)c(C)nc3OC)CC2)c1 [Example 121]	superior antitumor activities to those of cisplatin					
COc1nc(C)c(C)cc1NC(=S)N1CCN(c2cccc(Cl)c2)CC1 [Example 126, 1-[(5,6-dimethyl-2-methoxypyridin-3-yl)aminothiocarbonyl]-4-(3-chlorophenyl) piperazine]	superior antitumor activities to those of cisplatin					
COc1cc(OC)cc(N2CCN(C(=S)Nc3cc(C)c(C)nc3OC)CC2)c1 [Example 129, 1-[(5,6-dimethyl-2-methoxypyridin-3-yl)aminothiocarbonyl]-4-(3,5-dimethoxyphenyl)piperazine]	superior antitumor activities to those of cisplatin					
C#CCNc1cccnc1N1CCN(C(=O)NCc2cc(CC)c(C)nc2OC)CC1 [Example 144, 1-[(5-ethyl-2-methoxy-6-methylpyridin-3-yl)methylaminocarbonyl]-4-[(3-propargylamino)pyridin-2-yl]piperazine]	superior antitumor activities to those of cisplatin					
